Literature values as cited in paper PMC5358987 (Drug Design, Development and Therapy, 2017).

Columns and labels:
[1] = system: HRM2 hairless mice
[2] = system: tyrosinase

## O=C(O)[C@@H]1CSC(c2ccc(O)cc2O)N1 (mixture of isomers) [MHY384, (2RS,4R)-2-(2,4-dihydroxyphenyl)thiazolidine-4-carboxylic acid]
[1]
  Reduction of melanogenesis: effectively reduce melanogenesis
[2]
  Tyrosinase inhibition: potent competitive tyrosinase inhibitors
